# Assay results: patent US10101324B2, “Non-competitive immunoassays to detect small molecules using nanopeptamers” (priority 2012, dated 2018)
# Tests used:
# [1] = system: MoAb 14D7; settings: molinate; same antibody MoAb 14D7; Rufo et al. 2004; cited from earlier work
# [2] = system: anti-molinate monoclonal antibody (MoAb 14D7); assay: Cross-reactivity of the pA-Nanopeptamer noncompetitive ELISA with related thiocarbamate pesticides; assay type: binding
# [3] = system: MoAb 5.6; settings: clomazone, Carlomagno et al. 2010; cited from earlier work
SMILES,"Cross reactivity, pA-Nanopeptamer assay [2] [%]",also measured
CCSC(=O)N1CCCCCC1 [Molinate],,IC50 of the competitive ELISA [1]: 0.069 ± 0.0005 µg/mL
CCCCN(CC)C(=O)SCCC [Pebulate],6,
CC1(C)CON(Cc2ccccc2Cl)C1=O [clomazone],,IC50 of the competitive format [3]: 0.028 ± 0.0011 µg/mL
CCN(CC)C(=O)SCc1ccc(Cl)cc1 [thiobencarb],0,
